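The compound was tested at five concentrations on cells cultured in 96-well plates, with a 48-hour exposure period. GI50: concentration for 50% inhibition of growth. TGI denotes the concentration required for complete inhibition of growth.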
Assays:
Assay in all cases: inhibition of tumour cell growth, NCI panel, 48 h
[1] = tested on: K-562 leukemia
[2] = tested on: HOP-62 NSCLC
[3] = tested on: SN12C renal
[4] = tested on: SF-268 CNS
[5] = tested on: OVCAR-4 ovarian
[6] = tested on: NCI-H522 lung
[7] = tested on: MALME-3M melanoma
[8] = tested on: SW-620 colon
[9] = tested on: SF-295 CNS
[10] = tested on: HCC-2998 colon
[11] = tested on: MOLT-4 leukemia
[12] = tested on: SK-MEL-28 melanoma
[13] = tested on: SK-MEL-5 melanoma
[14] = tested on: SK-MEL-2 melanoma
[15] = tested on: UACC-257 melanoma
[16] = tested on: CAKI-1 renal
[17] = tested on: SNB-19 CNS
[18] = tested on: OVCAR-5 ovarian
[19] = tested on: HL-60(TB) leukemia
[20] = tested on: OVCAR-3 ovarian
[21] = tested on: UO-31 renal
[22] = tested on: ACHN renal
[23] = tested on: NCI-H226 lung
[24] = tested on: NCI-H460 lung
[25] = tested on: U251 CNS
[26] = tested on: COLO 205 colon
[27] = tested on: A549 NSCLC
[28] = tested on: SK-OV-3 ovarian
[29] = tested on: LOX IMVI melanoma
[30] = tested on: DU-145 prostate
[31] = tested on: T-47D breast
[32] = tested on: HCT-116 colon
[33] = tested on: HS 578T breast
[34] = tested on: SNB-75 CNS
[35] = tested on: NCI/ADR-RES ovarian
[36] = tested on: IGROV1 ovarian
[37] = tested on: MDA-MB-435
[38] = tested on: 786-0 renal
[39] = tested on: RPMI-8226 leukemia
[40] = tested on: NCI-H23 lung
[41] = tested on: HCT-15 colon
[42] = tested on: M14 melanoma
[43] = tested on: UACC-62 melanoma
[44] = tested on: TK-10 renal
[45] = tested on: MCF7 breast
[46] = tested on: MDA-MB-468 breast
[47] = tested on: HT29 colon
[48] = tested on: SF-539 CNS
[49] = tested on: OVCAR-8 ovarian
[50] = tested on: CCRF-CEM leukemia
[51] = tested on: PC-3 prostate
[52] = tested on: MDA-MB-231 breast
[53] = tested on: SR leukemia
[54] = tested on: KM12 colon
[55] = tested on: EKVX NSCLC
[56] = tested on: BT-549 breast
[57] = tested on: RXF 393 renal

Which results are given for N#Cc1cc(-c2ccc3ncnc(N4CCc5cc(F)c(Cl)cc54)c3c2)cnc1N?
GI50 [1]: 3.23 µM; TGI [1]: > 100 µM; GI50 [2]: 3.75 µM; TGI [2]: > 100 µM; GI50 [3]: 1.05 µM; TGI [3]: 11.2 µM; GI50 [4]: 2.31 µM; TGI [4]: > 100 µM; GI50 [5]: 3.7 µM; TGI [5]: > 100 µM; GI50 [6]: 3.34 µM; TGI [6]: > 100 µM; GI50 [7]: 2.93 µM; TGI [7]: 45.5 µM; GI50 [8]: 2.62 µM; TGI [8]: > 100 µM; GI50 [9]: 3.23 µM; TGI [9]: > 100 µM; GI50 [10]: 2.07 µM; TGI [10]: > 100 µM; GI50 [11]: 1.63 µM; TGI [11]: 11.4 µM; GI50 [12]: 2.81 µM; TGI [12]: > 100 µM; GI50 [13]: 3.03 µM; TGI [13]: > 100 µM; GI50 [14]: 17.1 µM; TGI [14]: > 100 µM; GI50 [15]: 4.45 µM; TGI [15]: > 100 µM; GI50 [16]: 0.786 µM; TGI [16]: > 100 µM; GI50 [17]: 3.41 µM; TGI [17]: > 100 µM; GI50 [18]: 5.21 µM; TGI [18]: > 100 µM; GI50 [19]: 0.422 µM; TGI [19]: > 100 µM; GI50 [20]: 1.47 µM; TGI [20]: > 100 µM; GI50 [21]: 0.278 µM; TGI [21]: > 100 µM; GI50 [22]: 0.85 µM; TGI [22]: > 100 µM; GI50 [23]: 1.38 µM; TGI [23]: > 100 µM; GI50 [24]: 1.9 µM; TGI [24]: 6.52 µM; GI50 [25]: 2.71 µM; TGI [25]: > 100 µM; GI50 [26]: 1.9 µM; TGI [26]: > 100 µM; GI50 [27]: 1.88 µM; TGI [27]: > 100 µM; GI50 [28]: 2.92 µM; TGI [28]: > 100 µM; GI50 [29]: 1.6 µM; TGI [29]: 16.9 µM; GI50 [30]: 1.49 µM; TGI [30]: > 100 µM; GI50 [31]: 1.49 µM; TGI [31]: > 100 µM; GI50 [32]: 2.11 µM; TGI [32]: 10.4 µM; GI50 [33]: 0.633 µM; TGI [33]: 7.71 µM; GI50 [34]: 0.838 µM; TGI [34]: > 100 µM; GI50 [35]: 2.41 µM; TGI [35]: > 100 µM; GI50 [36]: 0.365 µM; TGI [36]: 3.01 µM; GI50 [37]: 4.15 µM; TGI [37]: 29.8 µM; GI50 [38]: 0.435 µM; TGI [38]: 21.9 µM; GI50 [39]: 0.992 µM; TGI [39]: > 100 µM; GI50 [40]: 3.34 µM; TGI [40]: > 100 µM; GI50 [41]: 1.68 µM; TGI [41]: > 100 µM; GI50 [42]: 3.09 µM; TGI [42]: > 100 µM; GI50 [43]: 3.39 µM; TGI [43]: > 100 µM; GI50 [44]: 0.993 µM; TGI [44]: > 100 µM; GI50 [45]: 0.532 µM; TGI [45]: 4.05 µM; GI50 [46]: 0.227 µM; TGI [46]: 0.88 µM; GI50 [47]: 2.65 µM; TGI [47]: > 100 µM; GI50 [48]: 1.87 µM; TGI [48]: > 100 µM; GI50 [49]: 2.34 µM; TGI [49]: > 100 µM; GI50 [50]: 0.575 µM; TGI [50]: > 100 µM; GI50 [51]: 1.75 µM; TGI [51]: > 100 µM; GI50 [52]: 2.45 µM; TGI [52]: 9.48 µM; GI50 [53]: 1.01 µM; TGI [53]: 10 µM; GI50 [54]: 15.9 µM; TGI [54]: > 100 µM; GI50 [55]: 0.94 µM; TGI [55]: > 100 µM; GI50 [56]: 1.23 µM; TGI [56]: 32.6 µM; GI50 [57]: 0.316 µM; TGI [57]: 2.94 µM

Reference: PubChem BioAssay (NCI)
